Reference: patent US11485736B2 (KSQ Therapeutics, Inc., priority 2018, dated 2022)
Read-outs that look alike come from different tables or passages of the source.

Assays:
[1] = ADME solubility determination at pH 2.0 and pH 7.4; format: physicochemical; conditions: aqueous buffer, thermodynamic from solid, LC-MS/MS
Experimental: Certain Compounds of the Disclosure were assessed for ADME solubility at pH 2.0 and pH 7.4.
Stock solutions were prepared by adding each compound to DMSO at a concentration of 10 mM. Samples were prepared by adding 50 μL of each stock solution to separate vials. The vials were loaded onto a 96-well rack and dried. 500 μL of Phosphate Buffered Saline (PBS) pH 7.4 or PBS pH 2.0 were added into each vial. The vials were then shaken at 25° C. and 1,100 rpm for 24 hours.
After 24 hours, the vials were centrifuged at 3220 G and 25° C. for 30 minutes. The supernatant fluid was analyzed by LC-MS/MS against a standard of known concentration. The solubility of each sample was then calculated using the equation below:
[formula] where DF is the dilution factor.

[2] = Liver microsomal stability, human liver microsomes; format: in vitro ADME; conditions: 1 μM compound, NADPH, read-out: t1/2 (min) in HLM
Experimental: (§1) Certain Compounds of the Disclosure were assessed for ADME metabolic stability in human liver microsomes (HLM) and rat liver microsomes (RLM).
(§2) Samples were prepared by adding 222.5 μL of a master solution (100 mM phosphate buffer and 1 mg/mL liver microsomes (HLM or RLM)) and 25 μL of a 10 mM NADPH solution to incubation plates, which were then warmed for 10 min. Each compound was separately dissolved in DMSO to prepare 10 mM stock solutions, which were then diluted to 100 μM with acetonitrile. A reaction was started by adding 2.5 μL of the 100 μM solution of each compound to separate incubation plates such that the final concentration of for each compound in each plate was 1 μM.
(§3) 25 μL aliquots of each sample were taken at 0.5, 5, 10, 15, 20 and 30 minutes, and the reaction was stopped by adding 5 volumes of cold acetonitrile with IS (100 nM alprazolam, 200 nM caffeine and 100 nM tolbutamide). The samples were then centrifuged at 3,220 G for 30 minutes, and 100 μL of the supernatant fluid was mixed with 100 μL of ultra-pure H2O.
(§4) The samples were then analyzed by LC-MS/MS. Peak areas were determined from extracted ion chromatograms. Slope values (k) were determined by linear regression of the natural logarithm of the remaining percentage of the compound vs. incubation time curve. […] The in vitro half-life (min) was converted into the in vitro intrinsic clearance (in vitro CLint, in μL/min/mg protein) using the following equation: […]

[3] = Liver microsomal stability, rat liver microsomes; format: in vitro ADME; conditions: 1 μM compound, NADPH, read-out: t1/2 (min) in RLM
Experimental: as §1, §2, §3, §4

[4] = PBS pH 2.0, shaken at 25° C. for 24 hours, read-out: Solubility at pH 2.0
[5] = PBS pH 7.4, shaken at 25° C. for 24 hours, read-out: Solubility at pH 7.4
[6] = phosphate buffered saline, PBS pH 2.0, shaken at 25° C. for 24 hours, read-out: Solubility at pH 2.0
[7] = phosphate buffered saline, PBS pH 7.4, shaken at 25° C. for 24 hours, read-out: Solubility at pH 7.4

Row | solubility at 24 h [1, 4] | solubility at 24 h [1, 5] | half-life at 1 μM [2] | half-life at 1 μM [3] | solubility at 24 h [1, 6] | solubility at 24 h [1, 7] | Compound
1 | < 10 µM | < 10 µM | < 25 min | < 25 min | – | – | COCCOc1cc(C(F)(F)F)nn1-c1ccc(Cn2ncc3cnc(-c4c(OC)ncnc4C4CC4)nc32)cc1 [Example 77]
2 | < 10 µM | < 10 µM | > 25 min | > 25 min | – | – | COc1ncnc(C2CC2)c1-c1ncc2cnn(Cc3ccc(-c4cn(C(C)C)c(C(F)(F)F)n4)cc3)c2n1 [Example 34]
3 | < 10 µM | < 10 µM | < 25 min | < 25 min | – | – | COc1ncnc(C2CC2)c1-c1ncc2cnn(Cc3ccc(-n4nc(C(F)(F)F)cc4SC)cc3)c2n1 [Example 38]
4 | > 10 µM | < 10 µM | < 25 min | < 25 min | – | – | COc1cnn(C2CC2)c1-c1ncc2cnn(Cc3ccc(-c4nc(C(F)(F)F)cn4C(C)C)cc3)c2n1 [Example 83]
5 | > 10 µM | < 10 µM | < 25 min | < 25 min | – | – | COc1ncnc(C2CC2)c1-c1ncc2ccn(Cc3ccc(-c4nc(C(F)(F)F)cn4C)cc3)c2n1 [Example 201, 2-(4-cyclopropyl-6-methoxypyrimidin-5-yl)-7-(4-(1-methyl-4-(trifluoromethyl)-1H-imidazol-2-yl)benzyl)-7H-pyrrolo[2,3-d]pyrimidine]
6 | < 10 µM | < 10 µM | > 25 min | > 25 min | – | – | COc1ncnc(C2CC2)c1-c1ncc2cnn(Cc3ccc(-n4nc(C(F)(F)F)cc4OCCO)cc3)c2n1 [Example 78]
7 | > 10 µM | < 10 µM | < 25 min | < 25 min | – | – | CCn1c(-c2ccc(Cn3ncc4cnc(-c5c(OC)ncnc5C5CC5)nc43)cc2)nc(C(F)(F)F)c1C [Example 167, 6-(4-cyclopropyl-6-methoxypyrimidin-5-yl)-1-(4-(1-ethyl-5-methyl-4-(trifluoromethyl)-1H-imidazol-2-yl)benzyl)-1H-pyrazolo[3,4-d]pyrimidine]
8 | < 10 µM | < 10 µM | < 25 min | < 25 min | – | – | COc1ncnc(C2CC2)c1-c1ncc2cnn(Cc3ccc(-c4nc(C(F)(F)F)c(OC)n4C(C)C)cc3)c2n1 [Example 166]
9 | < 10 µM | < 10 µM | < 25 min | < 25 min | – | – | COc1ncnc(C2CC2)c1-c1ncc2cnn(Cc3ccc(-n4nc(C(F)F)cc4N(C)C)cc3)c2n1 [Example 123]
10 | > 10 µM | > 10 µM | > 25 min | > 25 min | – | – | COc1ncnc(OC)c1-c1ncc2cnn(Cc3ccc(-c4nc(C(F)(F)F)cn4C(C)C)cc3)c2n1 [Example 90]
11 | > 10 µM | > 10 µM | > 25 min | < 25 min | – | – | CCn1cc(C(F)(F)F)nc1-c1ccc(Cn2ncc3cnc(-c4c(OC)ncnc4C4CC4)nc32)cc1OC [Example 128]
12 | > 10 µM | < 10 µM | < 25 min | < 25 min | – | – | CCOc1ncnc(OCC)c1-c1ncc2cnn(Cc3ccc(-c4nc(C(F)(F)F)cn4CC)cc3)c2n1 [Example 91]
13 | < 10 µM | < 10 µM | < 25 min | < 25 min | – | – | CCn1cc(C(F)(F)F)nc1-c1ccc(Cn2ncc3cnc(-c4c(OC)cnn4C4CC4)nc32)cc1 [Example 82]
14 | > 10 µM | > 10 µM | < 25 min | < 25 min | – | – | COc1ncnc(C2CC2)c1-c1ncc2cnn(Cc3ccc(-c4nc(C#N)cn4C)cc3)c2n1 [Example 69]
15 | < 10 µM | < 10 µM | > 25 min | > 25 min | – | – | COc1ncnc(C2CC2)c1-c1ncc2cnn(Cc3ccc(-n4nc(C(F)F)cc4C)cc3)c2n1 [Example 50]
16 | > 10 µM | < 10 µM | > 25 min | > 25 min | – | – | COc1ncnc(C2CC2)c1-c1ncc2cnn([C@@H](C)c3ccc(-c4nc(C(F)(F)F)cn4C(C)C)cc3)c2n1 [Example 97]

Row | solubility at 24 h [1, 4] | solubility at 24 h [1, 5] | half-life at 1 μM [2] | half-life at 1 μM [3] | solubility at 24 h [1, 6] | solubility at 24 h [1, 7] | Compound
17 | < 10 µM | < 10 µM | < 25 min | < 25 min | – | – | CNc1cc(C(F)(F)F)nn1-c1ccc(Cn2ncc3cnc(-c4c(OC)ncnc4C4CC4)nc32)cc1 [Example 120]
18 | – | – | < 25 min | < 25 min | > 10 µM | > 10 µM | COc1ncnc(C2CC2)c1-c1ncc2cnn(Cc3ccc(-c4nc(C(F)(F)F)cn4C4CN(C)C4)cc3)c2n1 [Example 153]
19 | > 10 µM | > 10 µM | > 25 min | > 25 min | – | – | COc1ncnc(C2CC2)c1-c1ncc2cnn(Cc3ccc(-c4nc(C(F)(F)F)cn4CC(F)F)cc3)c2n1 [Example 138]
20 | < 10 µM | < 10 µM | < 25 min | < 25 min | – | – | CC(C)c1c(F)cccc1-c1ncc2cnn(Cc3ccc(-c4nc(C(F)(F)F)cn4C)cc3)c2n1 [Example 10, 6-(3-fluoro-2-isopropylphenyl)-1-(4-(1-methyl-4-(trifluoromethyl)-1H-imidazol-2-yl)benzyl)-1H-pyrazolo[3,4-d]pyrimidine]
21 | > 10 µM | < 10 µM | > 25 min | < 25 min | – | – | CCn1cc(C(F)(F)F)nc1-c1ccc([C@@H](C)n2ncc3cnc(-c4c(OC)ncnc4C4CC4)nc32)cc1 (single isomer, unassigned) [Example 95]
22 | > 10 µM | < 10 µM | < 25 min | < 25 min | – | – | COc1ncnc(C2CCC2)c1-c1ncc2cnn(Cc3ccc(-c4nc(C(F)(F)F)cn4C(C)C)cc3)c2n1 [Example 16]
23 | < 10 µM | < 10 µM | > 25 min | > 25 min | – | – | COc1ncnc(C2CC2)c1-c1ncc2cnn(Cc3ccc(-n4nc(C(F)(F)F)cc4C#N)cc3)c2n1 [Example 71]
24 | > 10 µM | < 10 µM | > 25 min | > 25 min | – | – | CCn1cc(C(F)(F)F)nc1-c1ccc(Cn2ncc3cnc(-c4c(OC)ncnc4C4CC4)nc32)cc1 [Example 51]
25 | < 10 µM | < 10 µM | < 25 min | < 25 min | – | – | CCn1cc(C(F)(F)F)nc1-c1ccc(Cn2ncc3cnc(-c4c(C5CC5)cnn4CC)nc32)cc1 [Example 68]
26 | < 10 µM | < 10 µM | < 25 min | < 25 min | – | – | CSc1cccc(C)c1-c1ncc2cnn(Cc3ccc(-c4nc(C(F)(F)F)cn4C)cc3)c2n1 [Example 21]
27 | > 10 µM | > 10 µM | > 25 min | > 25 min | – | – | CCn1cc(C(F)(F)F)nc1-c1ccc([C@@H](C)n2ncc3cnc(-c4c(OC)ncnc4OC)nc32)cc1 [Example 89]
28 | – | – | < 25 min | < 25 min | > 10 µM | < 10 µM | CCOc1ncnc(C2CC2)c1-c1ncc2cnn(Cc3ccc(-c4nc(C(F)(F)F)cn4C)cc3)c2n1 [Example 39]
29 | < 10 µM | < 10 µM | > 25 min | > 25 min | – | – | CCn1cc(C(F)(F)F)nc1-c1ccc([C@H](C)n2nc(OC)c3cnc(-c4c(OC)ncnc4C4CC4)nc32)cc1 [Example 180]
30 | > 10 µM | > 10 µM | < 25 min | < 25 min | – | – | COc1ncnc(C2CC2)c1-c1ncc2ncn(Cc3ccc(-c4nc(C(F)(F)F)cn4C)cc3)c2n1 [Example 203]
31 | < 10 µM | < 10 µM | – | – | – | – | COc1ncnc(C2CC2)c1-c1ncc2cnn(Cc3ccc(-c4csc(C(F)(F)F)n4)cc3)c2n1 [Example 126]
